Laboratory results from paper PMC8962522, “Direct interaction of TrkA/CD44v3 is essential for NGF-promoted aggressiveness of breast cancer cells” (Journal of Experimental & Clinical Cancer Research : CR, 2022).

Experiments:
[1] = system: TrkA/CD44v3 complex in HCC-1954 cells; assay: PLA TrkA/CD44v3 complex formation in HCC-1954 cells; assay type: cell-based; settings: Her2-like; NGF 100 ng/ml
Method: (§1) Cells (10,000 cells per well) were grown on acid-washed eight-well glass slides (Thermo Scientific) in the appropriate medium supplemented with 10% FBS for 24 h. After NGF treatment, paraformaldehyde (PAF)-fixed cells were incubated with 4% bovine serum albumin (BSA) or 5% FBS (for 1 h at 20 °C), followed by overnight incubation with primary antibodies (rabbit anti-TrkA or rabbit anti-IgG + mouse anti-pan-CD44; mouse anti-CD44v3; mouse anti-CD44v6; mouse anti-IgG2a; mouse anti-IgG2b; or mouse anti-IgG1). PLA was performed following the manufacturer’s instructions in the assay kit (Duolink PLA; Sigma–Aldrich). To obtain the correct representation of the PLA signal for each condition, 30 fields per condition were observed using a fluorescence microscope (Eclipse TiU; Nikon, Japan). The PLA signals (red dots) were automatically quantified using ImageJ software (with an in-house-developed plug-in). […]
(§2) Fig. 7 The TrkA/CD44v3 complex is formed in PR-negative breast cancer cells and tumors. TrkA/CD44v3 complex formation was measured in SUM159-PT (triple negative—i.e., ERα-, PR-, and Her2-) cells (A), T47-D (luminal A—i.e., ERα+, PR+, and Her2-) cells (B), BT-474 (luminal B—ERα+, PR+, and Her2+) cells (C), HCC-1954 (Her2-like—ERα-, PR-, and Her2+) cells (D), and 150 tumor patient samples obtained from US BioMax (HBre-Duc150Sur01) (E, F) using the proximity ligation assay (PLA). […]

[2] = system: TrkA/CD44v3 complex in BT-474 cells; assay: PLA TrkA/CD44v3 complex formation in BT-474 cells; assay type: cell-based; settings: luminal B; NGF 100 ng/ml
Method: as §1, §2

Substance: NGF: recombinant human β-NGF (Alomone Labs, Israel)
- effect on TrkA/CD44v3 complex formation (PLA) in HCC-1954 cells [1]: NGF induction of CD44v3/TrkA complex formation was observed in SUM-159PT (TN) and HCC-1954 (Her2) cells
- effect on TrkA/CD44v3 complex formation (PLA) in BT-474 cells [2]: NGF induction was insufficient to modulate TrkA/CD44v3 complex formation in BT-474 (luminal B) cells
